The test system of one test is human IP receptor. Put plainly: Receptor binding assay ([^3 H]-iloprost binding to human IP receptor expressed in COS7). To be noted: test compound 1×10^-6 M; 10 nM [^3 H]-iloprost; 60 minutes, 30° C. As for the experimental part: cDNA of human IP receptor was cloned and expressed in COS7 using pCDM8 vector in a similar manner to that described in the literatures [J. Biol. Chem., Vol. 269, No. 16, pp.12173-12178 (1994): Circulation, Vol. 90, No. 4, pp1643-1647 (1994) FEBS Letters 344 (1994) 74-78].
After transfection, cells which expressed human IP receptor were collected with ce l scraper at 4° C. and stored in -80° C.
The composition of assay buffer was as follows: 20 mM MES (pH 6.0), 10 mM MgCl2, 1 mM EDTA, and 0.1 mM PMSF. Frozen cells were thawed and aliquots (4.5×10^5 cells) were incubated for 60 minutes under shaking at 30° C. in plastic tubes in 100 μl of assay buffer with 10 nM of [^3 H]-iloprost in the presence or absence of the test compound (1×10^-6 M).
To determine the non-specific binding, iloprost at 10 μM was added. Each assay was preformed in duplicate. Reaction mixture was filtered through a Whatman GF/C glass filter to stop the reaction. After washing the filter with ice-cold assay buffer, the radioactivity of the filter was countered. Non-specific binding was subtracted from total binding to yield specific binding. The effect of the test compound was expressed as % inhibition of specific [^3 H]-iloprost binding.

Test [1] has as its system human platelet aggregation induced by ADP. Nature of the test: Inhibition of human platelet aggregation induced by ADP. In kind it is cell-based. The conditions noted are these: ADP 2.5 μM, platelet rich plasma, mean ± S.E. As for the experimental part: Human blood was obtained from healthy volunteers and mixed with 1/10 volume of 3.8% sodium citrate, pH 7.4. The citrate blood was centrifuged at 150×g for 10 minutes and the platelet rich plasma (PRP) was removed. The remaining blood was centrifuged for a further 10 minutes at 1500×g to prepare the platelet poor plasma (PPP), which was used as a reference for platelet aggregation. Aggregation studies were carried out using HEMATRACER 801 (NBS, Japan), a 8 channel aggregometer. 25 μl of sample solution and 225 μl of PRP were mixed and stirred at 1000 rpm for 2 minutes at 37° C. Aggregation was induced by ADP solution at the final concentration of 2.5 μM.

Test [2] has as its system mean arterial blood pressure in conscious rats. Nature of the test: Effect on mean arterial blood pressure in conscious rats. Format: in vivo, rat (male Sprague-Dawley). To be noted: 10 mg/kg; intravenous (femoral vein). The protocol:
Male Sprague-Dawley rats, aged 8-9 weeks, were anesthetized with ether. A polyethylene cannula filled with heparin solution was inserted into the femoral artery of the rats to measure mean blood pressure. Mean blood pressure was measured with a pressure transducer and recorded on a polygraph. The test compound dissolved in ethanol, polyethylene glycol and distilled water (1:1:1) was administered through a polyethylene cannula inserted into the femoral vein in a volume of 1 ml/kg. Intravenous hypotensive effect of the test compound was expressed as the maximal decrease (R max). Briefly, R max was expressed as maximal % change compared to mean blood pressure prior to the administration of the test compound.

From patent publication US5863918A, “Naphthalene derivatives” (Fujisawa Pharmaceutical Co., Ltd., priority 1994, dated 1999) come the findings set out here.

The structures appear in SMILES notation. Counter-ions that a name gives are not always drawn.

As for `O=C(O)COc1cccc2c1CC[C@](O)(COC(=O)N(c1ccccc1)c1ccccc1)C2` [Sodium salt of (2R)-[5-(carboxymethoxy)-2-hydroxy-1,2,3,4-tetrahydro-2-naphthyl]methyl N,N-diphenylcarbamate], the “Inhibition (%) of specific [^3 H]-iloprost binding” value with human IP receptor came out at 96.5%.
In test [1] (1.0 × 10^-6 M), `O=C(O)COc1cccc2c1CCC(Cn1nc(C(c3ccccc3)c3ccccc3)ccc1=O)C2` (stereo not shown) [Test compound (2), 2-[(1,2,3,4-Tetrahydro-5-carboxymethoxy-2-naphthyl)methyl]-6-diphenylmethyl-3(2H)-pyridazinone] came in with an inhibition at 1 µM of 100 ± 0.4%.
In the case of `O=C(O)COc1cccc2c1CCC(O)(COC(=O)N(c1ccccc1)c1ccccc1)C2` (stereo not shown) [Test compound (1), Sodium salt of [5-(carboxymethoxy)-2-hydroxy-1,2,3,4-tetrahydro-2-naphthyl]methyl N,N-diphenylcarbamate], the inhibition at 0.1 µM in test [1] (1.0 × 10^-7 M) turned out to be 97 ± 1.2%. Also, in test [2], the “R max (%): maximal decrease (maximal % change compared to mean blood pressure prior to administration)” value is 27.5%.
